In ChEMBL document CHEMBL6121062, “Discovery, Optimization, and Preclinical Pharmacology of EP652, a METTL3 Inhibitor with Efficacy in Liquid and Solid Tumor Models” (J Med Chem, 2025):
Calls of active or inactive are those of the source. No cut-off for these calls is given here.

Assays:
[1] = molecular target: T1, METTL3/METTL14 (Homo sapiens) (UniProt Q86U44+Q9HCE5); test: (§1) Inhibition of METTL3/METTL14-mediated m6A mRNA expression in human Calu-6 cells incubated for 24 hrs by LC-MS/MS analysis; assay type: cell-based
METTL3/METTL14 [2] = molecular target: T2, METTL3/METTL14 (Homo sapiens, UniProt Q86U44); test: as §1; assay type: cell-based
Cytochrome P450 3A4 = Cytochrome P450 3A4 (Homo sapiens, UniProt P08684); test: Inhibition of CYP3A4 (unknown origin); assay type: ADME
METTL3/METTL14 [3] = molecular target: T2, METTL3/METTL14; test: Displacement of [3H]-SAM from METTL3/METTL14 (unknown origin) using 5'biotinylated-UACACUCGAUCUGGACUAAAGGUGCUC-3' RNA as substrate preincubated for 10 mins followed by substrate/[3H]-SAM addition measured after 90 mins by SPA; assay type: protein-complex assay
Kasumi 1 = test: Antiproliferative activity against human Kasumi 1 cells assessed as inhibition of cell viability incubated for 72 hrs by ATPlite assay; assay type: functional, cell-based; details: Kasumi 1, 72 h
[4] = Lipophilicity, logD of compound in 1-octanol/PBS at pH 7.4 incubated for 24 hrs by HPLC analysis; assay type: physicochemical
[5] = Unbound clearance in Sprague-Dawley rat at 1 mg/kg/day, iv measured for 24 hrs by LC-MS/MS analysis; assay type: ADME, organism-based; details: in vivo
[6] = Half life in human liver microsomes; assay type: ADME, Microsome
Cytochrome P450 1A2 = molecular target: T3, Cytochrome P450 1A2 (Homo sapiens, UniProt P05177); test: Inhibition of CYP1A2 (unknown origin); assay type: ADME
T3 sequence (P05177 whole entry): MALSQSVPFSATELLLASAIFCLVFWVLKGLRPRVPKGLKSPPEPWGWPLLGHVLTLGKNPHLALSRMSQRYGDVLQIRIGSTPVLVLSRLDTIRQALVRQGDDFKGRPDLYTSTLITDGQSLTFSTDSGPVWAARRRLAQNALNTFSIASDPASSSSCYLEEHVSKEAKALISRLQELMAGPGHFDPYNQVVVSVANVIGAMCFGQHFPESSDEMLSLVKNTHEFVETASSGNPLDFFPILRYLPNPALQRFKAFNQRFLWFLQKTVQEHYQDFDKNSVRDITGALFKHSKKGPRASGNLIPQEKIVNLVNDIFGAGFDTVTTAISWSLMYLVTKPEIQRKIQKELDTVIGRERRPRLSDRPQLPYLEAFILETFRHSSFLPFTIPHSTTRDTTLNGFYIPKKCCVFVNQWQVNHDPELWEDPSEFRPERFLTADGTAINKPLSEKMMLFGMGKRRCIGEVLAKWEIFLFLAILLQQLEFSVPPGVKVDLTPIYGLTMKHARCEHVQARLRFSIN

Cytochrome P450 2C9 = Cytochrome P450 2C9 (Homo sapiens, UniProt P11712); test: Inhibition of CYP2C9 (unknown origin); assay type: ADME
[7] = molecular target: Voltage-gated inwardly rectifying potassium channel KCNH2 (Homo sapiens, UniProt Q12809); test: Inhibition of hERG transfected in HEK293 cells at 20 mV; assay type: toxicity, cell-based
MV4-11 [8] = test: Antiproliferative activity against human MV4-11 cells assessed as inhibition of cell viability incubated for 72 hrs by ATPlite assay; assay type: functional, cell-based; details: MV4-11, 72 h
Caov-3 cell line = test: Antiproliferative activity against human Caov-3 cells assessed as inhibition of cell viability incubated for 72 hrs by ATPlite assay; assay type: functional, cell-based; details: Caov-3, 72 h
Calu-6 = test: Antiproliferative activity against human Calu-6 cells assessed as inhibition of cell viability incubated for 72 hrs by ATPlite assay; assay type: functional, cell-based; details: Calu-6, 72 h
SK-OV-3 [9] = test: Antiproliferative activity against human SK-OV-3 cells assessed as inhibition of cell viability incubated for 72 hrs by ATPlite assay; assay type: functional, cell-based; details: SK-OV-3, 72 h
NCI-H1650 = test: Growth inhibition of human NCI-H1650 cells spheroid model; assay type: functional, cell-based
[10] = molecular target: T1, METTL3/METTL14 (Homo sapiens); test: (§2) Inhibition of METTL3/METTL14-mediated m6A mRNA expression in human Kasumi 1 cells incubated for 24 hrs by LC-MS/MS analysis; assay type: cell-based
METTL3/METTL14 [11] = molecular target: T2, METTL3/METTL14; test: as §2; assay type: cell-based
[12] = molecular target: T1, METTL3/METTL14 (Homo sapiens); test: (§3) Inhibition of METTL3/METTL14-mediated m6A mRNA expression in human MV4-11 cells incubated for 24 hrs by LC-MS/MS analysis; assay type: cell-based
METTL3/METTL14 [13] = molecular target: T2, METTL3/METTL14; test: as §3; assay type: cell-based
[14] = molecular target: T1, METTL3/METTL14 (Homo sapiens); test: (§4) Inhibition of METTL3/METTL14-mediated m6A mRNA expression in human A549 cells incubated for 24 hrs by LC-MS/MS analysis; assay type: cell-based
METTL3/METTL14 [15] = molecular target: T2, METTL3/METTL14; test: as §4; assay type: cell-based
[16] = molecular target: T1, METTL3/METTL14 (Homo sapiens); test: (§5) Inhibition of METTL3/METTL14-mediated m6A mRNA expression in human SK-OV-3 cells incubated for 24 hrs by LC-MS/MS analysis; assay type: cell-based
METTL3/METTL14 [17] = molecular target: T2, METTL3/METTL14; test: as §5; assay type: cell-based
[18] = Unbound AUC in mouse at 30 mg/kg, ip; assay type: ADME, organism-based; details: in vivo
MV4-11 [19] = test: Induction of apoptosis in human MV4-11 cells incubated for 48 hrs by Caspase-Glo 3/7 assay; assay type: functional, cell-based
[20] = In vivo inhibition of METTL3/METTL14-mediated m6A mRNA expression in PBMC of rat at 0.3 mg/kg, ip relative to control; assay type: functional
[21] = tested on: Acute myeloid leukemic cell; test: Antitumor activity against patient-derived human Acute myeloid leukemic cells xenografted in NSG mouse assessed as prolongation of animal survival at 30 mg/kg, ip qd treated for 91 days measured upto 112 days; assay type: functional, organism-based; details: time <= 112.0 day
MV4-11 [22] = test: Antitumor activity against human MV4-11 cells expressing Luc-mCh-Puro xenografted in NSG mouse administered intraperitoneally once daily measured after 19 days by bioluminescence imaging analysis; details: dose 10-30 mg/kg, route ip, time 19.0 day
FaDu = test: Antitumor activity against human FaDu cells xenografted in NSG mouse assessed as prolongation of animal survival at 30 mg/kg, ip qd treated for 20 days; assay type: functional, organism-based; details: time 20.0 day
A549 [23] = test: Antitumor activity against human A549 cells xenografted in NSG mouse assessed as prolongation of animal survival at 30 mg/kg, ip qd treated for 50 days; assay type: functional, organism-based; details: time 50.0 day
A549 [24] = test: Antitumor activity against human A549 cells xenografted in NSG mouse assessed as tumor growth inhibition at 30 mg/kg, ip qd treated for 50 days by bioluminescence imaging analysis; assay type: functional, organism-based; details: time 50.0 day
SK-OV-3 [25] = test: Antitumor activity against human SK-OV-3 cells xenografted in NSG mouse assessed as tumor growth inhibition at 30 mg/kg, ip qd treated for 52 days by bioluminescence imaging analysis; assay type: functional, organism-based; details: time 52.0 day
[26] = Toxicity in NSG mouse xenografted with human FaDu cells assessed as body weight gain at 30 mg/kg, ip qd treated for 20 days; assay type: organism-based; details: in vivo, 480 h, time 20 day
[27] = Toxicity in NSG mouse xenografted with human A549 cells assessed as body weight gain at 30 mg/kg, ip qd treated for 50 days; assay type: organism-based; details: in vivo, 1200 h, time 50 day
[28] = Toxicity in NSG mouse xenografted with human SK-OV-3 cells assessed as body weight gain at 30 mg/kg, ip qd treated for 83 days; assay type: organism-based; details: in vivo, 1992 h, time 83 day
[29] = Toxicity in NSG mouse xenografted with human A549 cells assessed as macroscopic adverse events at 30 mg/kg, ip qd treated for 50 days; assay type: organism-based; details: in vivo, 1200 h, time 50 day

T2 sequence (Q86U44 whole entry): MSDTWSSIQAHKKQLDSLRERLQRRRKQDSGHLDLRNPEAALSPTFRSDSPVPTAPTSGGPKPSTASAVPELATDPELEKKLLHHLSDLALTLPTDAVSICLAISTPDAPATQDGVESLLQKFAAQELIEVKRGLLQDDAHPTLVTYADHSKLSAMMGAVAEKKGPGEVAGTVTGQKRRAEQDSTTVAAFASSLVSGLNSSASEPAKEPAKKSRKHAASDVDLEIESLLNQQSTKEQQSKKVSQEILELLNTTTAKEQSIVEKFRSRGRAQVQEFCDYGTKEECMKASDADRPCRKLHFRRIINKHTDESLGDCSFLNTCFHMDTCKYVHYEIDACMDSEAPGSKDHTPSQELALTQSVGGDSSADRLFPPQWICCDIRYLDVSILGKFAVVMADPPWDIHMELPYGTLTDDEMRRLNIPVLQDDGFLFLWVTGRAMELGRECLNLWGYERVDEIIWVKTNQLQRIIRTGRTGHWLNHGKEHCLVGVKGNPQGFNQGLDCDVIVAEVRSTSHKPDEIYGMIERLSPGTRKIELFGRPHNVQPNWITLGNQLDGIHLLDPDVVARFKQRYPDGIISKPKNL
T2 sequence (Q9HCE5 whole entry, further chain): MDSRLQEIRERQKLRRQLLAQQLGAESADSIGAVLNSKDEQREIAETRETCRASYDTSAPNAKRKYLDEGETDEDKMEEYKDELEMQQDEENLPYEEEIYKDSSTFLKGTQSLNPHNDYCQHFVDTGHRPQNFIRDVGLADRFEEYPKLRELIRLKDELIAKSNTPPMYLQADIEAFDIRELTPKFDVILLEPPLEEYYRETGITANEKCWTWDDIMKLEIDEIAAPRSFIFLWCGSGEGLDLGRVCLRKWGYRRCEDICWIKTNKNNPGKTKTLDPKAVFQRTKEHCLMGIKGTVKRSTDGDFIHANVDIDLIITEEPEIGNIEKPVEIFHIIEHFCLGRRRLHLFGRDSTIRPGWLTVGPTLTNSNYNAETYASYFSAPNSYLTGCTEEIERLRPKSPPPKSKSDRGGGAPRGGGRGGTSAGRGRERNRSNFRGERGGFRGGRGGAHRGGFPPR
Cytochrome P450 3A4, sequence (P08684 whole entry): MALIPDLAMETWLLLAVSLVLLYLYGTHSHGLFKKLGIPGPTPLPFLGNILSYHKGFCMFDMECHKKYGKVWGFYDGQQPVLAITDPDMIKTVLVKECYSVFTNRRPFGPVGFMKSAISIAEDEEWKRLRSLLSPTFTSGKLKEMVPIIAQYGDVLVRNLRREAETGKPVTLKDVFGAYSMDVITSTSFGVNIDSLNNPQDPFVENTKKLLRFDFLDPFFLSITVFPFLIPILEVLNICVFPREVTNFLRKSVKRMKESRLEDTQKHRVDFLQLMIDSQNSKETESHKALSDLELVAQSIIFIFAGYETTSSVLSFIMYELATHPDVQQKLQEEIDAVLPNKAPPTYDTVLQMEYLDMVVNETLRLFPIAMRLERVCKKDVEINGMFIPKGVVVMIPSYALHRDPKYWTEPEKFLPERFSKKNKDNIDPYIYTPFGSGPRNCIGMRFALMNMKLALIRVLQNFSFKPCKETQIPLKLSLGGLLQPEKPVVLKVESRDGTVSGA
Cytochrome P450 2C9, sequence (P11712 whole entry): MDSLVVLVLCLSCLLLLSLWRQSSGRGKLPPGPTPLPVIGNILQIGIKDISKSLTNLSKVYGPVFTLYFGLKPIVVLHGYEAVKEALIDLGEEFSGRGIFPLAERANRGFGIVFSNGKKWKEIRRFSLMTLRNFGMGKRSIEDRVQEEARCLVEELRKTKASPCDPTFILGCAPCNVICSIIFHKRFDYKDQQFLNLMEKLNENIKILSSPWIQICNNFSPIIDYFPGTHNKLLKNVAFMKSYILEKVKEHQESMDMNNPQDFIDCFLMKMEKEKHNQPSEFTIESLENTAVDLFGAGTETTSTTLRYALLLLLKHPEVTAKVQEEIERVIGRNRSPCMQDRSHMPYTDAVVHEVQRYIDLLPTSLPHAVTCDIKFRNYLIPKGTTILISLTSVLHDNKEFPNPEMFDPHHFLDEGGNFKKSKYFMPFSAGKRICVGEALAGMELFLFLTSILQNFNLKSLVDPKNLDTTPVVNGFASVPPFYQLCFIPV
Voltage-gated inwardly rectifying potassium channel KCNH2, sequence (Q12809 whole entry): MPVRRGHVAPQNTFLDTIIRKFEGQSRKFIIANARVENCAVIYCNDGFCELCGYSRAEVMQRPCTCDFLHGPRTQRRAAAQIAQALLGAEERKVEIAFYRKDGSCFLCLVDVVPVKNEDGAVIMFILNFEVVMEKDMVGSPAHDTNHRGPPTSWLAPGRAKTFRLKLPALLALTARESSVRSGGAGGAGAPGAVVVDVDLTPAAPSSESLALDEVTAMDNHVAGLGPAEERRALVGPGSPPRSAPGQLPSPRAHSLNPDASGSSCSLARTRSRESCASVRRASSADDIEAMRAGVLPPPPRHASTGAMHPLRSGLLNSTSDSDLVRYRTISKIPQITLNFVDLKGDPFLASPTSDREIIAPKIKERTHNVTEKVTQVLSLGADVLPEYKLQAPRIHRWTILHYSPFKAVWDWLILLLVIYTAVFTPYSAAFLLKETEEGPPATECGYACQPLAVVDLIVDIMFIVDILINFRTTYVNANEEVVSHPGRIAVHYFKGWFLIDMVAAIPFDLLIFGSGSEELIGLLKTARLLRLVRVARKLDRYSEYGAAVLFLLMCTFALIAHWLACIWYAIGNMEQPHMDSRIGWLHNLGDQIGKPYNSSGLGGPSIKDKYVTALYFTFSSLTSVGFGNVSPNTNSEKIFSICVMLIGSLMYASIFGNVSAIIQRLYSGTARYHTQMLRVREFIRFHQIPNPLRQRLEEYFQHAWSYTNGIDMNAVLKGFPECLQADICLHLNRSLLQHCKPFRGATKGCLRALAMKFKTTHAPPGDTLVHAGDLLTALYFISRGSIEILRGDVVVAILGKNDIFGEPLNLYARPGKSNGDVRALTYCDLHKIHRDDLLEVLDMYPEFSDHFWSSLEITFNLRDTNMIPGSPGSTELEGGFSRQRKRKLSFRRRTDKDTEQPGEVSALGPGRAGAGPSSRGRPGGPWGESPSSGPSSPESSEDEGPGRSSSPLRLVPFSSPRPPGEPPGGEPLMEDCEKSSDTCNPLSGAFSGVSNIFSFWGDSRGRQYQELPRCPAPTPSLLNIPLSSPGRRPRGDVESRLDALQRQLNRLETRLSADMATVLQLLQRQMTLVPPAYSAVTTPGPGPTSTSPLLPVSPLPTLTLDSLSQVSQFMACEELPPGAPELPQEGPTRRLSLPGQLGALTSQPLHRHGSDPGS

inhibition [1]: Dose-dependent-effect | IC50 (METTL3/METTL14 [2]): 9 nM | IC50 (Cytochrome P450 3A4): 900 nM | IC50 (METTL3/METTL14 [3]): 2 nM | logD at 24 h [4]: 1.16 | CL free [5]: 358 mL/min/kg | half-life [6]: 141 min | IC50 (Cytochrome P450 1A2): > 100 µM | IC50 (Cytochrome P450 2C9): > 100 µM | IC50 (MV4-11 [8]): 234 nM | IC50 (Calu-6): 18 nM | IC50 (SK-OV-3 [9]): 11 nM | IC50 (NCI-H1650): 99 nM | inhibition [10]: Dose-dependent-effect | IC50 (METTL3/METTL14 [11]): 5 nM | inhibition [12]: Dose-dependent-effect | IC50 (METTL3/METTL14 [13]): 5 nM | inhibition [14]: Dose-dependent-effect | IC50 (METTL3/METTL14 [15]): 7 nM | inhibition [16]: Dose-dependent-effect | IC50 (METTL3/METTL14 [17]): 3 nM | fAUC [18]: 175.8 µM·min
SMILES: C[C@@H](n1cc(-c2cncc(N(C)C)c2)nn1)n1ccc(N2CCC[C@@H](NCC3CC3)C2)cc1=O
IC50 (Kasumi 1): 37 nM | IC50 [7]: > 30 µM | IC50 (Caov-3 cell line): 20 nM | Activity (MV4-11 [19]): Active | Emax at 0.3 mg/kg [20]: ~75% | Activity [21]: Active | Activity (MV4-11 [22]): Dose-dependent-effect | Activity (FaDu): Active | Activity (A549 [23]): Active | inhibition (A549 [24]): Active | inhibition (SK-OV-3 [25]): Active | Activity [26]: Non-toxic | Activity [27]: Non-toxic | Activity [28]: Non-toxic | Activity [29]: Non-toxic
